# Measured values as given in patent publication US20060089375A1, “Pyrazolo[3,4-b] pyridine compounds, and their use as phosphodiesterase inhibitors” (priority 2002, published 2006).
# Experiments:
# [1] = tested on: LPS-induced pulmonary neutrophilia in rats; assay: In Vivo Assay 1: LPS-induced pulmonary neutrophilia in rats, orally administered PDE4 inhibitors; details: Rattus norvegicus, po, aerosolized LPS 30 min after dosing, BAL 4 hours post LPS, read-out: neutrophilia-inhibition ED50
# From the text: The purpose of this neutrophilia model is to study the potentially anti-inflammatory effects in vivo of orally administered PDE4 inhibitors on neutrophilia induced by inhalation of aerosolized lipopolysaccharide (LPS), modelling the neutrophil inflammatory component(s) of COPD. See the literature section below for scientific background.
# Male Lewis rats (Charles River, Raleigh, N.C., USA) weighing approximately 300-400 grams are pretreated with either (a) test compound suspended in 0.5% methylcellulose (obtainable from Sigma-Aldrich, St Louis, Mo., USA) in water or (b) vehicle only, delivered orally in a dose volume of 10 ml/kg. Generally, dose response curves are generated using the following doses of PDE4 inhibitors: 10.0, 2.0, 0.4, 0.08 and 0.016 mg/kg. Thirty minutes following pretreatment, the rats are exposed to aerosolized LPS (Serotype E. Coli 026:B6 prepared by trichloroacetic acid extraction, obtainable from Sigma-Aldrich, St Louis, Mo., USA), generated from a nebulizer containing a 100 μg/ml LPS solution. Rats are exposed to the LPS aerosol at a rate of 4 L/min for 20 minutes. LPS exposure is carried out in a closed chamber with internal dimensions of 45 cm length×24 cm width×20 cm height. The nebulizer and exposure chamber are contained in a certified fume hood. At 4 hours-post LPS exposure the rats are euthanized by overdose with pentobarbital at 90 mg/kg, administered intraperitoneally. Bronchoalveolar lavage (BAL) is preformed through a 14 gauge blunt needle into the exposed trachea. Five, 5 ml washes are performed to collect a total of 25 ml of BAL fluid. […] Percent neutrophil inhibition at each dose (cf. vehicle) is calculated and a variable slope, sigmoidal dose-response curve is generated, usually using Prism Graph-Pad. […]
# Alternative method and results: In an alternative embodiment of the procedure, single oral doses of 10 mg/kg or 1.0 mg/kg of the PDE4 inhibitor (or vehicle) is administered to the rats, and percent neutrophil inhibition is calculated and reported for that specific dose.
# [2] = tested on: pica feeding response; assay: In Vivo Assay 2: Rat Pica Model of Emesis; details: oral, rats, dosed orally, upper end given as greater than or equal to about 40 mg/kg
# From the text: However, a side effect of some PDE4 inhibitors in many species is emesis. Because many rat models of inflammation are well characterized, they have been used in procedures (see e.g. In Vivo Assay 1 above) to show beneficial anti-inflammatory effects of PDE 4 inhibitors. However rats have no emetic response (they have no vomit reflex), so that the relationship between beneficial anti-inflammatory effects of PDE 4 inhibitors and emesis is difficult to study directly in rats.
# Pica feeding is a behavioural response to illness in rats wherein rats eat non-nutritive substances such as earth or in particular clay (e.g. kaolin) which may help to absorb toxins. Pica feeding can be induced by motion and chemicals (especially chemicals which are emetic in humans), and can be inhibited pharmacologically with drugs that inhibit emesis in humans. The Rat Pica Model, In Vivo Assay 2, can determine the level of pica response of rats to PDE 4 inhibition at pharmacologically relevant doses in parallel to in vivo anti-inflammatory Assays in (a separate set of) rats (e.g. In Vivo Assay 1 above). […] The Rat TI can for example be calculated as the ratio of a) the potentially-emetic Pica Response ED50 dose from Assay 2 to b) the rat anti-inflammatory ED50 dose (e.g. measured by rat neutrophilia-inhibition in eg In Vivo Assay 1), with larger TI ratios possibly indicating lower emesis at many anti-inflammatory doses. […]
# At the end of 72 hours the rats are placed in clean cages and the food cups weighed. […] The food and clay cups and cage debris are weighed the following day and the total clay and food consumed that night by each individual animal is calculated.
# A dose response is calculated by first converting the data into quantal response, where animals are either positive or negative for the pica response. A rat is “pica positive” if it consumes greater than or equal to 0.3 grams of clay […] using logistic regression performed by the Statistica software statistical package. A Pica Response ED50 value in mg per kg of body weight can then be calculated.
Compound,ED50 [1] [mg/kg],ED50 [2] [mg/kg]
"CCn1ncc2c(NC3CCOCC3)c(C(=O)Nc3ccc(F)cc3)cnc21 [Example 22, 1-Ethyl-N-(4-fluorophenyl)-4-(tetrahydro-2H-pyran-4-ylamino)-1H-pryazolo[3,4-b]pyridine-5-carboxamide]",0.5 to 2,4.8 to 40
"CCNC(=O)c1cnc2c(cnn2CC)c1NC1CCOCC1 [Example 83, 1-Ethyl-N-ethyl-4-(tetrahydro-2H-pyran-4-ylamino)-1H-pyrazolo[3,4-b]pyridine-5-carboxamide]",0.5 to 2,4.8 to 40
"CCn1ncc2c(NC3CCOCC3)c(C(=O)NCc3ccc(C(F)(F)F)cc3)cnc21 [Example 155, 1-Ethyl-4-(tetrahydro-2H-pyran-4-ylamino)-N-[4-(trifluoromethyl)benzyl]-1H-pyrazolo[3,4-b]pyridine-5-carboxamide]",0.5 to 2,4.8 to 40
